Test system: DYT1 MEF secreted EVs
Experiment: Small RNAseq of miRNAs in EVs secreted by DYT1 vs WT MEFs, ritonavir 24 h
Type: cell-based, mouse
Conditions: 24 hour culture exposure
Protocol: RNA was isolated from the DYT1 vs WT mouse embryonic fibroblast (MEF) secreted EVs, using the same cultures used in proteomic experiments. Small RNA sequencing was performed using a Illumina Novoseq 500. […] The number of independent culture preparations per genotype was three (N=3). The EV fraction was divided and separately analyzed for proteins and RNAs. […] Genotype-disrupted miRNAs and genotype-directionality as identified in FIG. 6A are indicated by blue and red dots in FIG. 6B. […] Blue and red data points of FIG. 6C identify genotype effect and directionality originally as in FIG. 6A.

CC(C)c1nc(CN(C)C(=O)N[C@H](C(=O)N[C@@H](Cc2ccccc2)C[C@H](O)[C@H](Cc2ccccc2)NC(=O)OCc2cncs2)C(C)C)cs1 [ritonavir]
effect on genotype-disrupted subset of EV miRNAs: strong correlation of corrective effects | effect on genotype-disrupted subset of EV miRNAs (listed as Ritonavir): stronger correlation of corrective effects
